Reference: patent publication US20230285596A1, “COMPOSITIONS AND METHODS FOR THE TREATMENT OF NIEMANN-PICK TYPE C1 DISEASE” (Voyager Therapeutics, Inc, priority 2020, published 2023)

What was measured:
HEK293 cells = test: NPC1 protein expression in HEK293 cells transfected with viral genome constructs (ELISA and Western Blot, normalized to GAPDH and transfection efficiency); format: cell-based; conditions: for % over Ref. (% overexpression compared to that of the reference ITR_ITR 2): transfection, NPC1 protein vs reference ITR_ITR 2 (SEQ ID NO: 1753), Table 6; for NPC1 expression normalized to GAPDH and transfection efficiency: EF-1a promoter variants with wtNPC1, FIG. 2
Description: The viral genome constructs encoding NPC1 generated, and investigated for expression of NPC1 protein in vitro. Use of different promoters (e.g., CBA promoters or variants thereof, CMV promoters and variants thereof, EF1a promoter variants) and/or codon optimized nucleotide sequences encoding the NPC1 protein (e.g., SEQ ID NO: 1750 or SEQ ID NO: 1749) (Table 6). An additional set of viral genome constructs were also investigated, testing different combinations of promoters and codon optimized sequences (Tables 7, 9 and 10).
In order to assess NPC1 expression, the viral genome constructs comprising a promoter operably linked to a transgene encoding were transfected into HEK293 cells. NPC1 protein level was determined by ELISA and Western Blot, and normalized to GAPDH control and transfection efficiency. The expression of NPC1 was calculated as percent overexpression relative to the reference construct (ITR_ITR 2 (SEQ ID NO: 1753) which comprises promoter variant 8 (SEQ ID NO: 1782) and the wild-type nucleotide sequence encoding NPC1 (SEQ ID NO: 1747)) (% over reference or % overexpression to reference).
Table 9 summarizes the constructs tested that comprise promoter variant 11 (SEQ ID NO: 1785), promoter variant 13 (SEQ ID NO: 1787), promoter variant 15 (SEQ ID NO: 1789), or promoter variant 18 (SEQ ID NO: 1791), operably linked to a transgene encoding NPC1 (wild-type or codon optimized nucleotide sequences encoding NPC1). These constructs were transfected into HEK293 cells, and the NPC1 protein expression was measured by ELISA and/or western blot and normalized to expression of a GAPDH control and transfection efficiency. The percent overexpression compared to a reference construct (ITR_ITR2 (SEQ ID NO: 1753), which comprises promoter variant 8 (SEQ ID NO: 1782) and the wild-type nucleotide sequence encoding NPC1 (SEQ ID NO: 1747)) was then calculated for each construct tested (% overexpression to reference) (Table 9, FIGS. 2-3).

[1] = tested on: animal models of NPC disease; conditions: biweekly intrathecal (IT) injection; cited from earlier work
NPC1 patient fibroblasts = test: NPC1 protein expression in NPC1 patient fibroblasts; format: cell-based, human; conditions: transduced, FIG. 10B
Description: NPC1/2 is overexpressed in HEK 293 cells using the AAV vector of Example 1 or other method of transfection. Western Blot and ELISA detection protocols are optimized using routine experimentation to establish assays for NPC1/2 protein detection. These and additional biochemical studies are used to validate assays and establish cell lines for additional in vitro analysis. For example, Western Blot and ELISA assays can be performed and optimized using fibroblast cell lines, which may be obtained from Coriell Institute (Camden, N.J., United States). Fibroblast cell lines can be from healthy individual donors (e.g., Coriell catalog nos. GM00038, GM00302, GM00500, GM00969, and/or GM05758—referred to respectively herein as H1, H2, H3, H4, and H5 cell lines) or from diagnosed Niemann-Pick Disease, Type C1 patient donors (e.g., Coriell catalog nos. GM00110, GM03123, GM18436, and/or GM23162 referred to respectively herein as N1, N2, N3, and N4 cell lines).
NPC1 protein expression was assessed in healthy and NPC1 patient fibroblasts according to the assays described in Example 2. […] ITR_ITR 1 rescued NPC1 protein to near 100% relative to healthy fibroblasts. ITR_ITR 3 and ITR_ITR 5 rescued NPC1 protein to 100% or greater relative to healthy fibroblasts. […]

human neuronal cells = test: NPC1 protein expression in human neuronal cells; format: cell-based; conditions: human neurons, transduced; FIG. 10A
Description: Cell-lines and reagents: Standard cell-lines are used for initial screening. This includes lines from multiple species to align with in vivo studies. Since transduction of both neuronal and non-neuronal cell types are needed in vivo, two neuronal and two non-neuronal cell types are used for in vitro screening. These cell lines include naïve neuronal SK-N-AS cells (procured from ATCC), primary neuronal cultures from NPC1^−/− mice (see below), immortalized human hepatocytes (procured from Creative Bioarray or ATCC), NPC1 patient fibroblasts (procured from Coriell) and/or iPS Cells derived from NPC1 patients (Yu, Xiao-Hua, et al. “NPC1, intracellular cholesterol trafficking and atherosclerosis.”Clinica chimica acta 429 (2014): 69-75, the disclosure of which is incorporated by reference in its entirety). Example cell lines for use in assays described herein include fibroblast cell lines, which may be procured from Coriell Institute (Camden, N.J., United States). […]
NPC1 protein expression was further assessed for constructs ITR_ITR 2, ITR_ITR 1, ITR_ITR 3, ITR_ITR 4, and ITR_ITR 5 (SEQ ID NOs: 1753, 1752, and 1754-1756, respectively) in hepatocytes (FIG. 5, left graph) and constructs ITR_ITR 2, ITR_ITR 1, ITR_ITR 3, ITR_ITR 4, ITR_ITR 5, ITR_ITR 6, and ITR_ITR 7 (SEQ ID NOs: 1753, 1752, and 1754-1758, respectively) in human neuronal cells (FIG. 5, right graph). […]

[2] = % overexpression vs reference, Table 8

## ITR_ITR 7: Viral genome SEQ ID NO: 1758: short CBA promoter (SEQ ID NO: 1735); WT NPC1 protein coding sequence
HEK293 cells
  % over Ref. (% overexpression compared to that of the reference ITR_ITR 2): −15%

## ITR_ITR 41: Viral genome SEQ ID NO: 1833: CMVie enhancer (SEQ ID NO: 1737); short CBA promoter; WT NPC1 protein coding sequence
HEK293 cells
  % over Ref. (% overexpression compared to that of the reference ITR_ITR 2): 165%

## 2-hydroxypropyl-β-cyclodextrin
[1]
  efficacy in animal models of NPC disease: effectively delay the onset of neurological signs, ameliorate cerebellar and liver dysfunction, and prolong lifespan

## CCCCN1C[C@H](O)[C@@H](O)[C@H](O)[C@H]1CO [Miglustat]
[1]
  efficacy in animal models of NPC disease: effectively delay the onset of neurological signs, ameliorate cerebellar and liver dysfunction, and prolong lifespan

## wtNPC1: Wild type Human NPC1 Coding Sequence, SEQ ID NO: 1747 [reference compound]
HEK293 cells; [2]
  NPC1 expression, CBA promoter with intron: 72%
  NPC1 expression, CBA promoter without intron: −15%
  NPC1 expression, CMV promoter with intron: 356%
  NPC1 expression, CMV promoter without intron: 203%
  NPC1 expression, Promoter Variant 8 (SEQ ID NO: 1782) with intron: 311%

B1: CMV promoter: short CMV promoter, 205 nt, SEQ ID NO: 1736 (nucleic acid)
DNA: GTGATGCGGTTTTGGCAGTACATCAATGGGCGTGGATAGCGGTTTGACTCACGGGGATTTCCAAGTCTCCACCCCATTGACGTCAATGGGAGTTTGTTTTGGCACCAAAATCAACGGGACTTTCCAAAATGTCGTAACAACTCCGCCCCATTGACGCAAATGGGCGGTAGGCGTGTACGGTGGGAGGTCTATATAAGCAGAGCTC
NPC1 patient fibroblasts
  NPC1 expression (NPC1/B-actin): increased expression of NPC1 compared to Promoter Variant 11

B2: Promoter Variant 11: EF-1a promoter variant, 236 nt, SEQ ID NO: 1785 (nucleic acid)
DNA: CGTGAGGCTCCGGTGCCCGTCAGTGGGCAGAGCGCACATCGCCCACAGTCCCCGAGAAGTTGGGGGGAGGGGTCGGCAATTGAACCGGTGCCTAGAGAAGGTGGCGCGGGGTAAACTGGGAAAGTGATGTCGTGTACTGGCTCCGCCTTTTTCCCGAGGGTGGGGGAGAACCGTATATAAGTGCAGTAGTCGCCGTGAACGTTCTTTTTCGCAACGGGTTTGCCGCCAGAACACAG
HEK293 cells
  NPC1 expression normalized to GAPDH and transfection efficiency: increased NPC1 expression relative to the ITR_ITR 2 reference construct
Human neuronal cells
  NPC1 expression (NPC1/B-actin): increased expression of NPC1 compared to the CMV promoter

B3: Promoter Variant 15: EF-1a promoter variant, 252 nt, SEQ ID NO: 1789 (nucleic acid)
DNA: GGTGGAGAAGAGCATGCGTGAGGCTCCGGTGCCCGTCAGTGGGCAGAGCGCACATCGCCCACAGTCCCCGAGAAGTTGGGGGGAGGGGTCGGCAATTGAACCGGTGCCTAGAGAAGGTGGCGCGGGGTAAACTGGGAAAGTGATGTCGTGTACTGGCTCCGCCTTTTTCCCGAGGGTGGGGGAGAACCGTATATAAGTGCAGTAGTCGCCGTGAACGTTCTTTTTCGCAACGGGTTTGCCGCCAGAACACAG
HEK293 cells
  NPC1 expression normalized to GAPDH and transfection efficiency: increased NPC1 expression relative to the ITR_ITR 2 reference construct

B4: Promoter Variant 13: EF-1a promoter variant, 241 nt, SEQ ID NO: 1787 (nucleic acid)
DNA: GCATGCGTGAGGCTCCGGTGCCCGTCAGTGGGCAGAGCGCACATCGCCCACAGTCCCCGAGAAGTTGGGGGGAGGGGTCGGCAATTGAACCGGTGCCTAGAGAAGGTGGCGCGGGGTAAACTGGGAAAGTGATGTCGTGTACTGGCTCCGCCTTTTTCCCGAGGGTGGGGGAGAACCGTATATAAGTGCAGTAGTCGCCGTGAACGTTCTTTTTCGCAACGGGTTTGCCGCCAGAACACAG
HEK293 cells
  NPC1 expression normalized to GAPDH and transfection efficiency: increased NPC1 expression relative to the ITR_ITR 2 reference construct

B5: Promoter Variant 18: EF-1a promoter variant, 263 nt, SEQ ID NO: 1791 (nucleic acid)
DNA: GTCATCACTGAGGTGGAGAAGAGCATGCGTGAGGCTCCGGTGCCCGTCAGTGGGCAGAGCGCACATCGCCCACAGTCCCCGAGAAGTTGGGGGGAGGGGTCGGCAATTGAACCGGTGCCTAGAGAAGGTGGCGCGGGGTAAACTGGGAAAGTGATGTCGTGTACTGGCTCCGCCTTTTTCCCGAGGGTGGGGGAGAACCGTATATAAGTGCAGTAGTCGCCGTGAACGTTCTTTTTCGCAACGGGTTTGCCGCCAGAACACAG
HEK293 cells
  NPC1 expression normalized to GAPDH and transfection efficiency: increased NPC1 expression relative to the ITR_ITR 2 reference construct
